Test results as given in patent US5872126A, “Methods and compositions for treating preterm labor” (priority 1997, dated 1999).
Entries after “also recorded” stand apart in the source; their conditions may differ.

Assays:
Assay type in all cases: in vivo, Sprague-Dawley rat
parturition in the rat [1] = assay: Effect of test compound on parturition in the rat, dosed GD 6 through LD 20 (Example 1); conditions: for Mean Length of Gestation ± SD: oral gavage
Source text: Effect of the 5α-reductase type 1 inhibitor 3-oxo-4-aza-4,7β-dimethyl-16β-(4-chlorophenoxy)-5α-androstane on parturition in the rat
Fifty female Sprague-Dawley rats (Charles River Laboratories, Raleigh, N.C.) approximately 11 weeks old, weighing from 211 to 297 grams were assigned to the present study. The female rats were housed singly in stainless steel hanging cages prior to and after cohabitation with a male of the same strain. During cohabitation, females were caged with untreated males of the same strain in a ratio of 1 female: 1 male. On Gestational Day (GD) 15 to 17, females were transferred to individual clear polycarbonate boxes containing Beta-Chip bedding in preparation for delivery and in which they remained with their litters throughout the lactation period. Room temperature was maintained between 19.4° and 25.0° C.; room humidity was maintained between 40 and 60% relative humidity, and room lights were set for alternating 12-hour periods of light and dark throughout the study. All rats had free access to PMI Certified Rodent Diet #5002 and tap water throughout the study.
Vehicle consisted of 0.5% methylcellulose in deionized water with […] sodium laurel sulfate (SLS) and was prepared on a weekly basis and refrigerated when not in use.
The high dose formulation of 3-oxo-4-aza-4,7β-dimethyl-16β-(4-chlorophenoxy)-5α-androstane ("test compound") (4 mg/mL, in vehicle) was prepared on a weekly basis and was refrigerated when not in use. All lower does formulations (0.5, 1.0 and 2.0 mg/mL) were prepared on a daily basis by diluting the high dose preparation with the vehicle. Ten females were randomly allocated to each of the following treatment groups: Control, 2.5 mg test compound/kg/day, 5.0 mg test compound/kg/day, 10 mg test compound/kg/day, 20 mg test compound/kg/day. The formulation was administered by oral gavage in a dosage volume of 5 ml/kg based on the most recent body weight. Females were treated once daily with the dose above from GD 6 through LD (lactation day) 20.
Each female was housed with one untreated male of the same strain. […] The day of finding the plugs and/or sperm was considered GD 0.
From GD21 until the completion of delivery (LD 0), each pregnant female was observed on four occasions throughout the day. On GD 24, females were observed twice at 7:30 am and 10:00 am. The onset and completion of delivery and any signs of difficulty in parturition were noted. Those females that had completed delivery at the first observation of the day were assigned a whole day value for the length of gestation (e.g. 21.0 or 22.0 days). Those females that completed delivery during the workday were assigned a half day value (e.g. 21.5 or 22.5 days).

parturition in the rat [2] = assay: Parturition after termination of drug treatment on GD 17, 19 or 20 (Example 2); conditions: 20 mg/kg/day; for Mean Length of Gestation ± SD: in days (unit assumed)
Source text: In order to determine if termination of drug treatment with the 5α-reductase type 1 inhibitor 3-oxo-4-aza-4,7β-dimethyl-16β-(4-chlorophenoxy)-5α-androstane ("test compound") on GD 17, 19 or 20 would allow the 3-oxo-4-aza-4,7β-dimethyl-16β-(4-chlorophenoxy)-5α-androstane-treated pregnant females to initiate and complete parturition, Sprague-Dawley rats (Charles River Laboratories, Raleigh, N.C.) were approximately ten weeks of age and weighted 223 to 276 grams on Gestation Day 0 (GD 0, the day of finding copulatory plugs). The design of the study is as described below. All animals were housed and fed as described in Example 1, with the exception of a 1 hour transient electrical failure, during which power outage dim illumination was provided by emergency backup lighting.
A dose of 20 mg/kg/day of the test compound was given once daily by oral gavage to the three treatment groups of 10 mated females each, designated by the treatment interval (GD 6-17, GD 6-19, and GD 6-20), at a dose volume of 5 mL/kg. (GD 6-17 received treatment from Gestational Day 6 through 17, etc.) An additional group of 10 females similarly received the vehicle (0.5% methylcellulose in deionized water with 0.02% sodium lauryl sulfate (SLS)) on GD 6-20 and served as the control.

serum progesterone = assay: Serum progesterone in pregnant rats (Example 3); conditions: 20 mg/kg/day
Protocol: In order to determine if the effects in the experiments conducted in Examples 1 and 2 were due to decreased progesterone catabolism associated with inhibition of 5α-reductase by the 5α-reductase type 1 inhibitor 3-oxo-4-aza-4,7β-dimethyl-16β-(4-chlorophenoxy)-5α-androstane ("test compound"), the following study was performed with the 5α-reductase inhibitor 3-oxo-4-aza-4,7β-dimethyl-16β-(4-chlorophenoxy)-5α-androstane and the progesterone antagonist RU-486.
Fifty-six pregnant female Sprague-Dawley rats (Charles River Laboratories, Raleigh, N.C.), approximately 10.5 weeks old weighing from 212 to 319 grams were employed in the study. They were fed and housed as described in EXAMPLE 1. The females were assigned to the following groups based on a weight independent random allocation scheme:
A dose of 10 mg/kg off RU-486 was selected based on the studies of Abdellilah et al., Progesterone and Mifepristone modify principally the response of circular myometrium to oxytocin in preparturient rats: comparison with response to acetylcholine and to calcium J. Pharmacol. and Exp. Therp.
The drugs were administered by oral gavage. The control article and vehicle consisted of 0.5% methylcellulose in deionized water with 0.02% sodium lauryl sulfate (SLS) and were prepared on a weekly basis and refrigerated when not in use. The test compound formulation (4 mg/mL, in vehicle) was prepared on a weekly basis and was refrigerated when not in use. The RU-486 formulation (2 mg base compound/mL, in 0.5% methylcellulose in deionized water) was prepared on a daily basis.

For `C[C@H]1C[C@H]2N(C)C(=O)CC[C@]2(C)[C@H]2CC[C@]3(C)C[C@@H](Oc4ccc(Cl)cc4)C[C@H]3[C@H]12` [test compound, 3-oxo-4-aza-4,7β-dimethyl-16β-(4-chlorophenoxy)-5α-androstane], the “number of females completing parturition” value (parturition in the rat [1]; 2.5 mg/kg/day, delivery day GD 22.0) was 2, the “number of females completing parturition” value (parturition in the rat [1]; 2.5 mg/kg/day, delivery day GD 22.5) was 7 and the “Mean Length of Gestation ± SD” value (parturition in the rat [1]; 2.5 mg/kg/day) was 22.8 ± 0.4 days. The “Sacrificed GD 24 due to failure to initiate or complete parturition” value (from here on “Sacrificed GD 24 due to failure”) (parturition in the rat [1]; 5.0 mg/kg/day) was 3, the “number of females completing parturition” value (parturition in the rat [1]; 5.0 mg/kg/day, delivery day GD 22.0) was 2 and the “number of females completing parturition” value (parturition in the rat [1]; 5.0 mg/kg/day, delivery day GD 22.5) was 2. For the same compound, the “number of females completing parturition” value (parturition in the rat [1]; 5.0 mg/kg/day, delivery day GD 23.0) was 2, the “Mean Length of Gestation ± SD” value (parturition in the rat [1]; 5.0 mg/kg/day) was 22.7 ± 0.7 days and the “Sacrificed GD 24 due to failure” value (parturition in the rat [1]; 10.0 mg/kg/day) was 3. The “number of females completing parturition” value (parturition in the rat [1]; 10.0 mg/kg/day, delivery day GD 22.5) was 2, the “number of females completing parturition” value (parturition in the rat [1]; 10.0 mg/kg/day, delivery day GD 23.0) was 3 and the “Mean Length of Gestation ± SD” value (parturition in the rat [1]; 10.0 mg/kg/day) was 22.8 ± 0.3 days. The “Sacrificed GD 24 due to failure” value (parturition in the rat [1]; 20 mg/kg/day) was 6, the “number of females completing parturition” value (parturition in the rat [1]; 20 mg/kg/day, delivery day GD 22.5) was 1 and the “number of females completing parturition” value (parturition in the rat [1]; 20 mg/kg/day, delivery day GD 23.0) was 3. For the same compound, the “Mean Length of Gestation ± SD” value (parturition in the rat [1]; 20 mg/kg/day) was 22.9 ± 0.2 days, the “failure to initiate or complete parturition” value (parturition in the rat [1]; 5, 10 and 20 mg/kg/day) was “treatment related increases in the failure to initiate or complete parturition; also recorded: drug-related increases in the incidence of females that failed to initiate or complete parturition” and the “length of gestation” value (parturition in the rat [1]; all drug-treated groups, 2.5-20 mg/kg/day) was “treatment-related increases in the length of gestation”. The “length of gestation relative to controls” value (parturition in the rat [2]; all dosing intervals) was “increases in the length of gestation”, the “number of pregnant females completing parturition” value (parturition in the rat [2]; dosed GD 6-17, delivery day GD 22.0) was 3 and the “number of pregnant females completing parturition” value (parturition in the rat [2]; dosed GD 6-17, delivery day GD 22.5) was 1. The “number of pregnant females completing parturition” value (parturition in the rat [2]; dosed GD 6-17, delivery day GD 23.0) was 6, the “Mean Length of Gestation ± SD” value (parturition in the rat [2]; dosed GD 6-17) was 22.6 ± 0.5 and the “Sacrificed GD 24 due to failure” value (parturition in the rat [2]; dosed GD 6-19) was 1. For the same compound, the “pregnant females that failed to initiate or complete delivery (fraction)” value (parturition in the rat [2]; dosed GD 6-19) was 1/10, the “number of pregnant females completing parturition” value (parturition in the rat [2]; dosed GD 6-19, delivery day GD 22.0) was 1 and the “number of pregnant females completing parturition” value (parturition in the rat [2]; dosed GD 6-19, delivery day GD 22.5) was 3. For the same compound, the “number of pregnant females completing parturition” value (parturition in the rat [2]; dosed GD 6-19, delivery day GD 23.0) was 4, the “number of pregnant females completing parturition” value (parturition in the rat [2]; dosed GD 6-19, delivery day GD 23.5) was 1 and the “Mean Length of Gestation ± SD” value (parturition in the rat [2]; dosed GD 6-19) was 22.8 ± 0.4. The “Sacrificed GD 24 due to failure” value (parturition in the rat [2]; dosed GD 6-20) was 2, the “pregnant females that failed to initiate or complete delivery (fraction)” value (parturition in the rat [2]; dosed GD 6-20) was 2/9 and the “number of pregnant females completing parturition” value (parturition in the rat [2]; dosed GD 6-20, delivery day GD 23.0) was 5. The “number of pregnant females completing parturition” value (parturition in the rat [2]; dosed GD 6-20, delivery day GD 24) was 2, the “Mean Length of Gestation ± SD” value (parturition in the rat [2]; dosed GD 6-20) was 23.3 ± 0.5 and the “mean serum progesterone, times above control group 1” value (from here on “mean serum progesterone”) (serum progesterone; GD 15) was “approximately 1.6 times”. For the same compound, the “mean serum progesterone” value (serum progesterone; GD 17) was about 1.4 times, the “mean serum progesterone” value (serum progesterone; GD 19) was “approximately 1.6 times” and the “mean serum progesterone” value (serum progesterone; GD 21) was about 3.3 times. For the same compound, the “correlation of individual serum progesterone values on GD 21 and failure to initiate or complete parturition” value (serum progesterone; Group 3) was “positive correlation”.
